Reference: ChEMBL document CHEMBL3885861, “Open TG-GATES”

Species on record: Rattus norvegicus
Experiment: Open TG-GATES - Regimen: Single
Assay type: toxicity, organism-based, Sprague-Dawley
Set-up: regimen Single, gender Male, age 6 weeks
Conditions: in vivo, po, route gavage; for gamma-GTP / ALP / ALT / AST / BUN / CRE / Ca / Cl / DBIL / GLC / IP / K / LDH / Na / PL / RALB / TBIL / TC / TG / TP: tissue Plasma; for APTT / Bas / Eos / Fbg / Hb / Ht / Lym / MCH / MCHC / MCV / Mono / Neu / PT / Plat / RBC / Ret: tissue Blood; for KIDNEY_L / KIDNEY_R / KIDNEY_TOTAL: tissue Kidney; for LIVER: tissue Liver
[1] = 300 mg/kg, 3 h, dose level Middle
[2] = 300 mg/kg, 6 h, dose level Middle
[3] = 300 mg/kg, 9 h, dose level Middle
[4] = 300 mg/kg, 24 h, dose level Middle
[5] = 1000 mg/kg, 3 h, dose level High
[6] = 1000 mg/kg, 6 h, dose level High
[7] = 1000 mg/kg, 9 h, dose level High
[8] = 1000 mg/kg, 24 h, dose level High

What does the source list for `COc1ccc2[nH]c([S+]([O-])Cc3ncc(C)c(OC)c3C)nc2c1` (configuration not stated) [OMEPRAZOLE]?
gamma-GTP (100 mg/kg, 24 h, dose level Low): 1.2 IU/L; TERMINAL_BW [1]: 223.6 g; APTT [1]: 18.7 s; Bas [1]: 0%; Eos [1]: 1%; Fbg [1]: 216.4 mg/dL; Hb [1]: 12.4 g/dL; Ht [1]: 36.4%; Lym [1]: 73.2%; MCH [1]: 21.2 pg; MCHC [1]: 33.9%; MCV [1]: 62.3 fL; Mono [1]: 3.4%; Neu [1]: 22.2%; PT [1]: 12.7 s; Plat [1]: 128.9 x10_4/uL; RBC [1]: 584.6 x10_4/ul; Ret [1]: 8.2%; KIDNEY_L [1]: 1 g; KIDNEY_R [1]: 1 g; KIDNEY_TOTAL [1]: 1.9 g; LIVER [1]: 9.8 g; ALP [1]: 904.2 IU/L; ALT [1]: 31.8 IU/L; AST [1]: 67.2 IU/L; BUN [1]: 10.2 mg/dL; CRE [1]: 0.4 mg/dL; Ca [1]: 10.6 mg/dL; Cl [1]: 100.6 meq/L; DBIL [1]: 0.064 mg/dL; GLC [1]: 194.8 mg/dL; IP [1]: 9.4 mg/dL; K [1]: 3.9 meq/L; LDH [1]: 202 IU/L; Na [1]: 139.6 meq/L; PL [1]: 146.4 mg/dL; RALB [1]: 3.3 g/dL; TBIL [1]: 0.1 mg/dL; TC [1]: 80.2 mg/dL; TG [1]: 70.2 mg/dL; TP [1]: 5.4 g/dL; gamma-GTP [1]: 1.6 IU/L; TERMINAL_BW [2]: 217.5 g; APTT [2]: 19 s; Bas [2]: 0%; Eos [2]: 1%; Fbg [2]: 216.4 mg/dL; Hb [2]: 13.1 g/dL; Ht [2]: 38.3%; Lym [2]: 74.4%; MCH [2]: 21.2 pg; MCHC [2]: 34.3%; MCV [2]: 61.8 fL; Mono [2]: 3.8%; Neu [2]: 20.6%; PT [2]: 12.9 s; Plat [2]: 124 x10_4/uL; RBC [2]: 620.6 x10_4/ul; Ret [2]: 6.5%; KIDNEY_L [2]: 1 g; KIDNEY_R [2]: 1 g; KIDNEY_TOTAL [2]: 2 g; LIVER [2]: 9.4 g; ALP [2]: 913.6 IU/L; AST [2]: 66 IU/L; BUN [2]: 10 mg/dL; CRE [2]: 0.4 mg/dL; Ca [2]: 10.3 mg/dL; Cl [2]: 100.8 meq/L; DBIL [2]: 0.066 mg/dL; GLC [2]: 192 mg/dL; IP [2]: 9.7 mg/dL; K [2]: 4.1 meq/L; LDH [2]: 171.2 IU/L; Na [2]: 140 meq/L; PL [2]: 145.6 mg/dL; RALB [2]: 3.3 g/dL; TBIL [2]: 0.1 mg/dL; TC [2]: 72.8 mg/dL; TG [2]: 74.4 mg/dL; TP [2]: 5.5 g/dL; gamma-GTP [2]: 1.4 IU/L; TERMINAL_BW [3]: 218.4 g; APTT [3]: 22.1 s; Bas [3]: 0%; Eos [3]: 1%; Fbg [3]: 223.8 mg/dL; Hb [3]: 12.7 g/dL; Ht [3]: 37%; Lym [3]: 76.6%; MCH [3]: 21.4 pg; MCHC [3]: 34.3%; MCV [3]: 62.4 fL; Mono [3]: 3.2%; Neu [3]: 18.4%; PT [3]: 12.9 s; Plat [3]: 117.1 x10_4/uL; RBC [3]: 593.4 x10_4/ul; Ret [3]: 6.7%; KIDNEY_L [3]: 0.9 g; KIDNEY_R [3]: 0.9 g; KIDNEY_TOTAL [3]: 1.9 g; LIVER [3]: 9.1 g; ALP [3]: 761.6 IU/L; ALT [3]: 27.6 IU/L; AST [3]: 62.8 IU/L; BUN [3]: 8.2 mg/dL; CRE [3]: 0.3 mg/dL; Ca [3]: 10.2 mg/dL; Cl [3]: 101.4 meq/L; DBIL [3]: 0.068 mg/dL; GLC [3]: 195.4 mg/dL; IP [3]: 9.5 mg/dL; K [3]: 3.9 meq/L; LDH [3]: 175.8 IU/L; Na [3]: 140.8 meq/L; PL [3]: 133.2 mg/dL; RALB [3]: 3.4 g/dL; TBIL [3]: 0.1 mg/dL; TC [3]: 70.4 mg/dL; TG [3]: 74 mg/dL; TP [3]: 5.4 g/dL; gamma-GTP [3]: 0.8 IU/L; TERMINAL_BW [4]: 229.5 g; APTT [4]: 20.6 s; Bas [4]: 0%; Eos [4]: 1%; Fbg [4]: 230.2 mg/dL; Hb [4]: 13.5 g/dL; Ht [4]: 39.6%; Lym [4]: 81.2%; MCH [4]: 20.6 pg; MCHC [4]: 34.1%; MCV [4]: 60.4 fL; Mono [4]: 3%; Neu [4]: 14.6%; PT [4]: 12.7 s; Plat [4]: 129 x10_4/uL; RBC [4]: 654.6 x10_4/ul; Ret [4]: 6.1%; KIDNEY_L [4]: 1 g; KIDNEY_R [4]: 1 g; KIDNEY_TOTAL [4]: 2 g; LIVER [4]: 11.8 g; ALP [4]: 1087 IU/L; ALT [4]: 35 IU/L; AST [4]: 65.8 IU/L; BUN [4]: 15.4 mg/dL; CRE [4]: 0.4 mg/dL; Ca [4]: 10.3 mg/dL; Cl [4]: 101 meq/L; DBIL [4]: 0.1 mg/dL; GLC [4]: 205.2 mg/dL; IP [4]: 9.4 mg/dL; K [4]: 3.8 meq/L; LDH [4]: 207 IU/L; Na [4]: 140.8 meq/L; PL [4]: 146.4 mg/dL; RALB [4]: 3.3 g/dL; TBIL [4]: 0.2 mg/dL; TC [4]: 72 mg/dL; TG [4]: 139.4 mg/dL; TP [4]: 5.5 g/dL; gamma-GTP [4]: 1 IU/L; TERMINAL_BW [5]: 220.8 g; APTT [5]: 18.6 s; Bas [5]: 0%; Eos [5]: 1%; Fbg [5]: 201.8 mg/dL; Hb [5]: 12.4 g/dL; Ht [5]: 36.3%; Lym [5]: 74.8%; MCH [5]: 21.2 pg; MCHC [5]: 34.3%; MCV [5]: 61.9 fL; Mono [5]: 3%; Neu [5]: 21%; PT [5]: 13.3 s; Plat [5]: 120.5 x10_4/uL; RBC [5]: 586.6 x10_4/ul; Ret [5]: 6.8%; KIDNEY_L [5]: 1 g; KIDNEY_R [5]: 1 g; KIDNEY_TOTAL [5]: 2 g; LIVER [5]: 9.8 g; ALP [5]: 966.6 IU/L; ALT [5]: 31.6 IU/L; AST [5]: 66 IU/L; BUN [5]: 11.2 mg/dL; CRE [5]: 0.4 mg/dL; Ca [5]: 10.2 mg/dL; Cl [5]: 100.6 meq/L; DBIL [5]: 0.072 mg/dL; GLC [5]: 208.8 mg/dL; IP [5]: 9.2 mg/dL; K [5]: 4 meq/L; LDH [5]: 174.6 IU/L; Na [5]: 140 meq/L; PL [5]: 140.8 mg/dL; RALB [5]: 3.3 g/dL; TBIL [5]: 0.1 mg/dL; TC [5]: 73.4 mg/dL; TG [5]: 56.8 mg/dL; TP [5]: 5.4 g/dL; gamma-GTP [5]: 0.8 IU/L; TERMINAL_BW [6]: 221 g; APTT [6]: 19.3 s; Bas [6]: 0%; Eos [6]: 1.2%; Fbg [6]: 208.8 mg/dL; Hb [6]: 12.9 g/dL; Ht [6]: 37.2%; Lym [6]: 70.6%; MCH [6]: 21.5 pg; MCHC [6]: 34.9%; MCV [6]: 61.8 fL; Mono [6]: 4.4%; Neu [6]: 23.2%; PT [6]: 13.2 s; Plat [6]: 129.9 x10_4/uL; RBC [6]: 602.4 x10_4/ul; Ret [6]: 7.1%; KIDNEY_L [6]: 1 g; KIDNEY_R [6]: 1.1 g; KIDNEY_TOTAL [6]: 2.1 g; LIVER [6]: 9.8 g; ALP [6]: 940.2 IU/L; ALT [6]: 27 IU/L; AST [6]: 65.6 IU/L; BUN [6]: 10 mg/dL; CRE [6]: 0.4 mg/dL; Ca [6]: 10.2 mg/dL; Cl [6]: 100.8 meq/L; DBIL [6]: 0.072 mg/dL; GLC [6]: 192.2 mg/dL; IP [6]: 9.7 mg/dL; K [6]: 4 meq/L; LDH [6]: 178.8 IU/L; Na [6]: 139.8 meq/L; PL [6]: 145.8 mg/dL; RALB [6]: 3.3 g/dL; TBIL [6]: 0.1 mg/dL; TC [6]: 78.8 mg/dL; TG [6]: 57 mg/dL; TP [6]: 5.5 g/dL; gamma-GTP [6]: 1.2 IU/L; TERMINAL_BW [7]: 219.2 g; APTT [7]: 18.3 s; Bas [7]: 0%; Eos [7]: 1%; Fbg [7]: 228.6 mg/dL; Hb [7]: 12.8 g/dL; Ht [7]: 37.1%; Lym [7]: 75.8%; MCH [7]: 21.3 pg; MCHC [7]: 34.6%; MCV [7]: 61.4 fL; Mono [7]: 3.4%; Neu [7]: 19%; PT [7]: 12.9 s; Plat [7]: 120.2 x10_4/uL; RBC [7]: 603.8 x10_4/ul; Ret [7]: 6.4%; KIDNEY_L [7]: 1 g; KIDNEY_R [7]: 1 g; KIDNEY_TOTAL [7]: 1.9 g; LIVER [7]: 9.6 g; ALP [7]: 705 IU/L; AST [7]: 62 IU/L; BUN [7]: 8 mg/dL; CRE [7]: 0.3 mg/dL; Ca [7]: 10.2 mg/dL; Cl [7]: 100.8 meq/L; DBIL [7]: 0.08 mg/dL; GLC [7]: 195.2 mg/dL; IP [7]: 10 mg/dL; K [7]: 3.8 meq/L; LDH [7]: 174.4 IU/L; Na [7]: 141 meq/L; PL [7]: 153.2 mg/dL; RALB [7]: 3.5 g/dL; TBIL [7]: 0.1 mg/dL; TC [7]: 80.4 mg/dL; TG [7]: 59.8 mg/dL; TP [7]: 5.5 g/dL; gamma-GTP [7]: 0.6 IU/L; TERMINAL_BW [8]: 226 g; APTT [8]: 19.9 s; Bas [8]: 0%; Eos [8]: 1%; Fbg [8]: 207.8 mg/dL; Hb [8]: 12.9 g/dL; Ht [8]: 37.7%; Lym [8]: 81.4%; MCH [8]: 21 pg; MCHC [8]: 34.1%; MCV [8]: 61.6 fL; Mono [8]: 4%; Neu [8]: 13.4%; PT [8]: 13.1 s; Plat [8]: 129.5 x10_4/uL; RBC [8]: 613.8 x10_4/ul; Ret [8]: 6.2%; KIDNEY_L [8]: 1 g; KIDNEY_R [8]: 1 g; KIDNEY_TOTAL [8]: 2.1 g; LIVER [8]: 12.1 g; ALP [8]: 924 IU/L; ALT [8]: 32.6 IU/L; AST [8]: 64.8 IU/L; BUN [8]: 11.2 mg/dL; CRE [8]: 0.4 mg/dL; Ca [8]: 10.1 mg/dL; Cl [8]: 100.6 meq/L; DBIL [8]: 0.1 mg/dL; GLC [8]: 200.4 mg/dL; IP [8]: 9.2 mg/dL; K [8]: 4.2 meq/L; LDH [8]: 230 IU/L; Na [8]: 140.6 meq/L; PL [8]: 162.8 mg/dL; RALB [8]: 3.4 g/dL; TBIL [8]: 0.2 mg/dL; TC [8]: 83.4 mg/dL; TG [8]: 169.2 mg/dL; TP [8]: 5.4 g/dL; gamma-GTP [8]: 1 IU/L
